The source of these data is patent US20080146555A1, “Uses of Kinase Inhibitors and Compositions Thereof” (GPC Biotech, Inc, priority 2004, published 2008).

Counter-ions that a name gives are not always drawn. Like-named read-outs stand apart in the source and are kept apart here.

One assay addresses Cdk2 (Homo sapiens, UniProt P24941). As to the kind of experiment: Cdk2 inhibition. The format is biochemical. The source says:
Further inhibition results for subject compounds of the invention against other CDKs and further kinases are shown in Table 5, Table II and described in Example 6.
Table 3, Table 4, Table 5 and Table II show the results obtained for inhibition of a broad range of such kinases for subject compounds of the invention.

A further assay addresses T1, MKK6 (Homo sapiens, UniProt P52564).
T1 construct: purchased Upstate 14-303
T1 sequence (P52564 1-334): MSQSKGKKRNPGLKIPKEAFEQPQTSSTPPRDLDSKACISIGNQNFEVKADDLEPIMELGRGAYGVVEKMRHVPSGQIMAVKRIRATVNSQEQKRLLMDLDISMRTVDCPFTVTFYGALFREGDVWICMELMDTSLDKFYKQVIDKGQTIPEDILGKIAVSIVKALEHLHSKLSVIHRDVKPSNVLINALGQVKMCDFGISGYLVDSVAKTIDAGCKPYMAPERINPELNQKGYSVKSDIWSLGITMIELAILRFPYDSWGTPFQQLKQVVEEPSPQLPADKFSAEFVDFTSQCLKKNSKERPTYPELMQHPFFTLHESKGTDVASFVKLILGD
As to the kind of experiment: MKK6 kinase assay. It is filed as biochemical. How it is done:
• 1. Reaction Buffer (RB): 50 mM Tris-HCl, pH 7.5, 0.1 mM EGTA, 0.1% 2-mercaptoethanol, 0.1 mM sodium orthovanadate, 10 mM MgAc. • 2. Magnesium/ATP Cocktail (Catalog #20-113): 500 μM cold ATP and 75 mM magnesium chloride in 20 mM MOPS, pH 7.2, 25 mM β-glycerol phosphate, 5 mM EGTA, 1 mM sodium orthovanadate, 1 mM dithiothreitol. • 3. MKK6/SKK3, active: Dilute to 10 ng/μl with Reaction Buffer containing 0.03% Brij-35. Use 5 μl (50 ng) per assay point. • 4. p38a/SAPK2a, unactive (Catalog #14-252): Use 4 μl per assay point. • 5. Myelin Basic Protein (MBP, Catalog #13-104): Prepare a 2 mg/ml stock solution in 20 mM MOPS, pH 7.2, 25 mM β-glycerol phosphate, 5 mM EGTA, 1 mM sodium orthovanadate, 1 mM dithiothreitol. Use 10 μl per assay point. • 6. [γ-^32P]ATP: Stock 1 mCi/100 μl (3000 Ci/mmol, obtained from Perkin Elmer, Catalog #BLU002A). Make 10 μl aliquots (100 μCi/vial). Before starting the assay, dilute the Magnesium/ATP Cocktail 1:1 with sterile, distilled water. Then dilute an aliquot of [γ-^32P]ATP to 1 μCi/μl with 90 μl of the diluted Magnesium/ATP Cocktail. […]
• 1. On ice, add 1 μl RB to a microcentrifuge tube. • 2. Add 4 μl (2 μg) p38α/SAPK2a, unactive. • 3. Add 10 μl of Magnesium/ATP Cocktail. • 4. Add 5 μl (50 ng) MKK6/SKK3, active. • 5. Incubate for 30 minutes shaking at 30° C. • 6. Place on ice and proceed to Stage Two.
• 1. Remove 10 μL of the mixture prepared in Stage One and add to a new microcentrifuge tube. • 2. Add 20 μl of RB. • 3. Add 10 μl of MBP. • 4. Add 10 μl of the diluted [γ-^32P] ATP mixture (1 μCi/μl). • 5. Incubate for 15 minutes shaking at 30° C. • 6. Spot 40 μl on a 2 cm×2 cm P81 paper. • 7. Wash assay squares three times with 0.75% phosphoric acid for 5 minutes per wash. • 8. Wash assay squares once with acetone for five minutes. • 9. Transfer the assay squares to a scintillation vial and add 5 ml scintillation cocktail. • 10. Read in scintillation counter. Compare cpm of enzyme samples to cpm of control samples that contain no active enzyme (background control).

Another assay concerns the target T2, Blk (Homo sapiens, UniProt P51451).
T2 construct: purchased Upstate 14-517
As to the kind of experiment: Blk kinase assay. It is filed as biochemical. How it is done: • 1. 10× Reaction buffer: […], 1 mM sodium orthovanadate, 1% 2-mercaptoethanol. • 2. Enzyme Dilution Buffer (EDB): 50 mM Tris-HCl pH 7.5, 0.1 mM EGTA, 0.1 mM sodium orthovanadate, 0.1% 2-mercaptoethanol 0.03% Brij-35. • 3. Blk (human), active: Dilute to 4-40 ng/μl with EDB. Use 2.5 μl per assay point. • 4. Poly(Glu-4-Tyr) (4:1): Prepare a 1 mg/ml stock. Use 2.5 μl per assay point for a final assay concentration of 0.1 mg/ml per assay point. • 5. [γ-^32P]ATP: Stock 1 mCi/100 μl (3000 Ci/mmol, obtained from PerkinElmer, Cat. # BLU002A). Make 10 μl aliquots (100 μCi/vial). Before starting the assay, dilute an aliquot to 1 μCi/μl with 90 μl of 75 mM MgCl2 and 500 μM cold ATP in 20 mM MOPS, pH 7.2, 25 mM β-glycerol phosphate, 5 mM EGTA, 1 mM sodium orthovanadate, 1 mM dithiothreitol.
• 1. Add 2.5 μl of 10× Reaction Buffer per assay. • 2. Add 2.5 μl (0.1 mg/ml) of Poly (Glu-4-Tyr) (4:1). • 3. Add 2.5 μl (10-100 ng) of Blk (human), active. • 4. Add 7.5 μl sterile, distilled water. • 5. Add 10 μl of the diluted [γ-^32P]ATP solution. • 6. Incubate for 10 minutes at 30° C. • 7. Transfer a 20 μl aliquot onto the center of a […]. • 8. Wash the assay squares three times for 5 minutes with 0.75% phosphoric acid. • 9. Wash the assay squares once for 5 minutes with acetone. • 10. Transfer the assay squares to vial and add 1 ml scintillation cocktail. • 11. Read in scintillation counter. Compare cpm of enzyme samples to cpm of control samples that contain background control.

A further assay has as its system A129 cp80. As to the kind of experiment: SRB cytotoxicity, cisplatin resistant cells. It is filed as cell-based, human. The following applies: for IC50: Homo sapiens, 72 h, SRB.
The mark [1] stands for this setting: kinase panel, 10 μM ATP, read-out: MAPK 6 / MKK6 IC50.
The mark [2] stands for this setting: read-out: MAP2K6 Inhibition (IC50).
Setting [3] is: read-out: BLK Inhibition (IC50).

T2 sequence (P51451 whole entry): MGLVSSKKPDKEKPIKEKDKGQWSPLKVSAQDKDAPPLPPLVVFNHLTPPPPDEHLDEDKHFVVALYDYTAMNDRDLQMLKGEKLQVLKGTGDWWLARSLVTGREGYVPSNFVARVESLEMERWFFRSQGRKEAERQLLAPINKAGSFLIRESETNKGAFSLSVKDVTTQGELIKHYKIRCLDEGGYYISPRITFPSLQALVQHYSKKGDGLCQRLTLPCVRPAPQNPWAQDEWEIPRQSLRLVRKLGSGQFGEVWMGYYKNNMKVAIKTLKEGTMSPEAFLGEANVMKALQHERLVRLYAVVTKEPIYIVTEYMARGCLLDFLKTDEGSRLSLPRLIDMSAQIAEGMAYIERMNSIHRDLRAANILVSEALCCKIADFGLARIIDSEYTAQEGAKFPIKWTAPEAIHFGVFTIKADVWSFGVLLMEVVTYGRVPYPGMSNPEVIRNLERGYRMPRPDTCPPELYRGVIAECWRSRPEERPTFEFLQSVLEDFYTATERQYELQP

In the case of `CC(C)N1CCN(C(=O)COc2ccc(-c3n[nH]c4c3C(=O)c3c(NC(=O)NN5CCOCC5)cccc3-4)cc2)CC1` [Compound A37], the IC50 on Cdk2 was less than 50 nM; on MKK6 (setting [1]), 10 to 100 nM; on MKK6 (setting [2]), less than 500 nM; on Blk (setting [3]), less than 100 nM; in the assay on A129 cp80, 4 nM. In the assay with A129 cp80, the “RR (relative resistance) A129 cp80 vs A129” value is on record as 0.7.

In the case of `COCCN1CCN(Cc2ccc(-c3n[nH]c4c3C(=O)c3c(NC(=O)NN5CCOCC5)cccc3-4)cc2)CC1` [Compound B16, N-[3-(4-{[4-(2-methoxyethyl)piperazinyl]methyl}phenyl)-4-oxoindeno[2,3-d]pyrazol-5-yl](morpholin-4-ylamino)carboxamide dihydrochloride], the IC50 against Cdk2 is less than 5 nM; at MKK6 (setting [1]) it was less than 100 nM; at MKK6 (setting [2]), less than 100 nM; on Blk (kinase panel, read-out: Blk IC50), less than 100 nM; on Blk (setting [3]) it was less than 100 nM; in the assay with A129 cp80, 4.7 nM. Also, the “RR (relative resistance) A129 cp80 vs A129” value with A129 cp80 is recorded as 0.5.
